Experiment [1] concerns the target Fc (mixture of human plasma IgG isoforms). Put plainly: Fluorescence anisotropy binding, fluorescein-labeled peptide. To be noted: pH 8.0, 0.05 M Tris-HCl, 0.2 M NaCl. The protocol:
(§1) Peptides were synthesized by BACHEM Bioscience, Inc., (King of Prussia, Pa.), fluorescein labeled and purified by HPLC. Binding studies were performed using either a mixture of human plasma IgG isoforms (the Fc target) or the individual human plasma IgG isoforms: IgG1, IgG2, IgG3, or IgG4. All Fc target proteins were obtained from Calbiochem.
(§2) All measurements were performed in 384 well microplates with 20 nM fluorescein-labeled peptide and various concentrations of the IgG isoform in a volume of between 10 and 20 μl using a Tecan Polarion fluorescence polarization plate reader. All binding buffers included 0.01% (v/v) Tween 20 to prevent peptide adsorption to the microplate. The binding mixture was equilibrated for 10 minutes in the microplate at 30° C. prior to performing the measurement.
(§3) Peptides were synthesized, fluorescein-labeled and HPLC purified as described above. Binding studies were performed using either a mixture of human plasma IgG isoforms (the Fc protein) or the individual human plasma IgG isoforms: IgG1, IgG2, IgG3, or IgG4.
(§4) Measurements were performed in 384-well microplates with 2 nM fluorescein-labeled peptide and a varied concentration of the IgG isoform target in a volume of 10 μl using a Tecan Polarion fluorescence polarization plate reader. The Fc binding buffer was 50 mM Tris-HCl, 200 mM NaCl, pH 8.0, 0.01% Tween 20. The IgG binding buffer was PBS with 0.01% Tween 20. The binding mixtures were equilibrated for 10 minutes in the microplate at 30° C. prior to performing the measurements.
On the technique in general: In fluorescence polarisation assays a small probe gives low polarisation when free and higher when bound to something large.

Experiment [2] concerns the target T1, human plasma IgG3 (Homo sapiens, UniProt P01860).
T1 construct: the individual human plasma IgG isoforms: IgG1, IgG2, IgG3, or IgG4; purchased Calbiochem; host or cells: human plasma
Described as above. The protocol: as §1, §2, §3, §4

Experiment [3] addresses T2, human plasma IgG4 (Homo sapiens, UniProt P01861).
T2 construct: the individual human plasma IgG isoforms: IgG1, IgG2, IgG3, or IgG4; purchased Calbiochem; host or cells: human plasma
The experiment is described as above. The protocol:
as §1, §2, §3, §4

Experiment [4] concerns human IgG. Put plainly: Static (filterplate) binding capacity. The protocol:
These media were used to determine the effect of ligand density on human IgG binding capacity in both static (filterplate) and dynamic (mini-column) modes with commercial immobilized recombinant Protein A (Repligen, IPA400) at a single density as control. Actual ligand densities obtained ranged from 0.17 to 3.2 μmole/ml media as confirmed by quantitative amino acid analysis.
After incubation of the samples, with shaking, at room temperature for one hour, the supernatant liquid from each well, containing unbound IgG, was collected by centrifugation into the cognate well of a collection plate. The assay plate was washed three times with PBST (200 μl/wash) and bound IgG was eluted from the media samples by incubation for 30-60 minutes at room temperature in 100 μl Elution Buffer (100 mM CAPS, pH 11.5). Eluates were collected by centrifugation for analysis. Protein concentrations were determined from A280 measurements and plotted as a function of mg human IgG bound per ml resin vs. mg human IgG applied per ml resin.
The amount of IgG captured (estimated from IgG recovered in the elution step) by the various media is dependent upon both the IgG concentration and the ligand density. […] Under these static conditions, where both ligand and target concentrations are close to KD values, equilibrium binding is established and total capacities cannot be accurately determined. However, over the IgG range of 0 to 25 mg IgG applied per ml resin (0 to 2.5 mg/ml target added to 10 μl of resin), capture of IgG is linear. Beyond this point, up to a level of 200 mg IgG applied per ml resin, saturation becomes more pronounced.

The mark [5] stands for this setting: pH 9.3, 0.01 M sodium bicarbonate.

Positions of bridges follow the written chain, without caps; N, C: chain ends. Residues, ends and D or L forms follow the SMILES beside them.

T1 sequence (P01860 1-377 isoform P01860-1): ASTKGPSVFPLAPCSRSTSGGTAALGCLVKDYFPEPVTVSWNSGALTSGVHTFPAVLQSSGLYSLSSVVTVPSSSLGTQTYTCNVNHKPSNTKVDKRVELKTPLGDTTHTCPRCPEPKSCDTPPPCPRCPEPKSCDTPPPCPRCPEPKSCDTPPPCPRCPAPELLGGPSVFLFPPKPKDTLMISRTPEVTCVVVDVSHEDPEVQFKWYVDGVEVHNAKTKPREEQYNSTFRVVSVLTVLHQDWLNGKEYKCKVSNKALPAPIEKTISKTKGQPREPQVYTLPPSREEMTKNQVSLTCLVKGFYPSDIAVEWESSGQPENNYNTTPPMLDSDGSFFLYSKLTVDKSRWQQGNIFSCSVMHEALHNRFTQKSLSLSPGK
T2 sequence (P01861 1-327 isoform P01861-1): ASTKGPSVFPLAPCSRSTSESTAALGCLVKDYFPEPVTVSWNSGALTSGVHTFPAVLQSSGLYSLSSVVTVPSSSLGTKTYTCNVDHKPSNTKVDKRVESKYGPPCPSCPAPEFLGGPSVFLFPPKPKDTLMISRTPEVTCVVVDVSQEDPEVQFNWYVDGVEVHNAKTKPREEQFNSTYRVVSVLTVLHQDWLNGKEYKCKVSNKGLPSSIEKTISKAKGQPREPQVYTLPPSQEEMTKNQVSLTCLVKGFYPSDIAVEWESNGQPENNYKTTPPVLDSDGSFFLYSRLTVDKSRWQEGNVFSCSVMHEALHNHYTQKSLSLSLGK

As for `CC[C@H](C)[C@@H]1NC(=O)[C@H](CC(C)C)NC(=O)[C@H](CCC(=O)O)NC(=O)CNC(=O)[C@H](Cc2c[nH]c3ccccc23)NC(=O)[C@H]([C@@H](C)O)NC(=O)[C@H]([C@@H](C)O)NC(=O)[C@H](Cc2ccc(O)cc2)NC(=O)[C@H](C(C)C)NC(=O)[C@@H](NC(=O)[C@H](CCSC)NC(=O)[C@H](Cc2c[nH]cn2)NC(=O)[C@H](CC(=O)O)NC(=O)[C@H](CC(=O)O)NC(=O)CNC(C)=O)CSSC[C@@H](C(=O)N[C@@H](CC(=O)O)C(=O)N[C@@H](CC(N)=O)C(=O)N[C@@H](Cc2c[nH]cn2)C(=O)N[C@@H](CCC(=O)O)C(=O)N2CCC[C@H]2C(=O)NCC(=O)N2CCC[C@H]2C(=O)N[C@@H](CCC(=O)O)C(=O)NCC(=O)NCC(=O)NCC(=O)N[C@@H](CCCCN)C(N)=O)NC(=O)[C@H](Cc2c[nH]c3ccccc23)NC1=O` [DX249] (Ac-GDDHMCVYTTWGELIWCDNHEPGPEGGGK-NH2; disulfide 6-17), the Kd is 2.5 ± 0.5 µM in experiment [1]; > 10 µM in experiment [2] (pH 5.7, 0.01 M Tris-acetate); > 10 µM in experiment [2] (pH 7.4, 0.01 M Tris-HCl); > 10 µM in experiment [2] (pH 7.4, PBS, […] NaCl); > 10 µM in experiment [2] (setting [5]); 1.9 ± 0.4 µM in experiment [3] (pH 7.4, 0.01 M Tris-HCl). Further, the Kd in experiment [3] (pH 7.4, PBS, […] NaCl) is 1.9 ± 1.2 µM; in experiment [3] (setting [5]) it was > 10 µM. Besides, the “Capacity (mg IgG/mL resin) Static” value is reported as 1.2 mg IgG/mL resin in experiment [4] (Ligand Density 0.19 μM/mL), 9.5 mg IgG/mL resin in experiment [4] (Ligand Density 0.86 μM/mL), 15.4 mg IgG/mL resin in experiment [4] (Ligand Density 1.63 μM/mL) and 19.0 mg IgG/mL resin in experiment [4] (Ligand Density 3.20 μM/mL). For the same compound, the “Static Cap.” value in experiment [4] (Table 18, 25 mg human IgG applied per ml resin, average ligand density 1.9 μmole/ml) came to 24 mg/mL.

With “Prot. A: immobilized recombinant Protein A (RepliGen Corp., product no. IPA-400), positive control [reference compound]”, the “Capacity (mg IgG/mL resin) Static” value in experiment [4] (Ligand Density not determined) is listed as 11.1 mg IgG/mL resin.

As for “Ac-GDRRACSRDWSGALVWCAGHEPGPEGGGK-NH2 (not fully specified (bridges); printed as Ac-GDRRACSRDWSGALVWCAGHEPGPEGGGK-NH2; cysteine pairing not given here) [DX253]”, the “Capacity (mg IgG/mL resin) Static” value in experiment [4] (Ligand Density 0.17 μM/mL) is recorded as 1.1 mg IgG/mL resin; in experiment [4] (Ligand Density 0.84 μM/mL) it was 8.5 mg IgG/mL resin; in experiment [4] (Ligand Density 1.45 μM/mL) it was 13.5 mg IgG/mL resin; in experiment [4] (Ligand Density 2.75 μM/mL), 17.4 mg IgG/mL resin.

As for `CC(=O)NCC(=O)N[C@@H](CC(=O)O)C(=O)N[C@@H](CC(=O)O)C(=O)N[C@@H](CC(=O)O)C(=O)N[C@@H](Cc1c[nH]cn1)C(=O)N[C@H]1CSSC[C@@H](C(=O)N2CCC[C@H]2C(=O)N[C@@H](Cc2c[nH]cn2)C(=O)NCC(=O)N[C@@H](CCC(=O)O)C(=O)N2CCC[C@H]2C(=O)NCC(=O)N2CCC[C@H]2C(=O)N[C@@H](CCC(=O)O)C(=O)NCC(=O)NCC(=O)NCC(=O)N[C@@H](CCCCN)C(N)=O)NC(=O)[C@H](CCC(=O)O)NC(=O)[C@H](CO)NC(=O)[C@H](CC(N)=O)NC(=O)[C@H](Cc2ccccc2)NC(=O)[C@H](Cc2c[nH]c3ccccc23)NC(=O)[C@H](CCC(=O)O)NC(=O)[C@H](CCCNC(=N)N)NC(=O)[C@H](Cc2ccccc2)NC(=O)[C@H](Cc2c[nH]c3ccccc23)NC(=O)[C@H](Cc2ccc(O)cc2)NC1=O` [DX252] (Ac-GDDDHCYWFREWFNSECPHGEPGPEGGGK-NH2; disulfide 6-17 (inferred)), the Kd in experiment [1] was 5.1 ± 3 µM; in experiment [2] (pH 5.7, 0.01 M Tris-acetate) it was < 0.1 µM; in experiment [2] (pH 7.4, 0.01 M Tris-HCl) it was 2.1 to 3.4 µM; in experiment [2] (setting [5]), > 10 µM; in experiment [3] (pH 5.7, 0.01 M Tris-acetate), > 10 µM; in experiment [3] (pH 7.4, 0.01 M Tris-HCl) it was 2.1 to 3.4 µM. Besides, the equilibrium dissociation constant (Kd) in experiment [3] (pH 7.4, PBS, […] NaCl) was > 10 µM; in experiment [3] (setting [5]) it was > 10 µM.

For orientation: Kd means a measure of binding affinity in units of concentration.

These data come from patent US20030199671A1, “Binding molecules for Fc-region polypeptides” (priority 2001, published 2003).
